Experimental data from paper PMC5601486, “Identification of 4-phenylquinolin-2(1H)-one as a specific allosteric inhibitor of Akt” (Scientific Reports, 2017).
pIC50: −log10 of the molar value. Like-named read-outs stand apart in the source and are kept apart here.

Assays:
[1] = system: Akt S473 phosphorylation; assay: pS473-Akt HTRF assay; type: cell-based, Mouse; conditions: Mus musculus, N2a, Neuro 2A cells
Method: Neuro 2A cells were seeded (4,000 cells/well) in 4 µL of DMEM with 0.5% FBS and 1x Penicillin/Streptomycin in white solid bottom tissue-culture treated 1536-well plates (Greiner, 789173-F) with MultiDrop Combi Dispenser (Thermo Scientific). The cells were incubated for 24 h at 37 °C, 5% CO2, 95% humidity. Twenty-three nL of tested compounds were transferred to each well with an automated pin-tool station (Kalypsys). Following incubation for 15 min at 37 °C, 0.5 µL IGF (500 ng/mL of final concentration) was added and incubated for additional 40 min at 37 °C. After the addition of 1.5 µL 4x lysis buffer and 15-min incubation at room temperature (25 °C), 2 µL of HTRF® conjugated antibodies (fluorophore d2 conjugated anti-Akt monoclonal antibody and Europium^3+ cryptate-labeled anti-pS473-Akt monoclonal antibody, obtained from CisBio, 1:80 dilution) were added with BioRAPTR FRD™ (Beckman Coulter). The plates were incubated at room temperature for 20 h. The signal was measured by EnVision Multilabel Plate Reader (PerkinElmer) with excitation at 330 nm, emission at 620 nm (donor) and 665 nm (acceptor). Results were calculated and analyzed in a format of the ratio 665 nm/620 nm multiplied by 10^4.
Relative activity was calculated by normalizing each HTRF signal from each sample well to the mean HTRF signal from the DMSO-only control wells.
The Library of Pharmacologically Active Compounds (LOPAC, 1280 compounds) and the Molecular Library Small Molecular Repository Library (MLSMR, 373,868 compounds) were obtained from Sigma-Aldrich.
Quantitative HTS (qHTS) and curve response class classification
The qHTS screen was performed as described previously1. Each compound was titrated in seven concentrations. The final concentrations of the compounds assayed ranged from 4.9 nM to 76.6 µM. The curve response classifications (CRC), which can be used to depict potency, efficacy and reliability of the data, and to estimate an IC50 value, were determined by a customized software2. […]
Sigma-Aldrich) and the basal response (0% inhibition) was set to the DMSO control.
Efficacy of a compound refers to the highest response normalized to the maximal response of LY. The CRCs were grouped into 4 categories. Class 1 are well-fit and have both upper and lower asymptotes with efficacy greater than 30%
(Class1.1, >80% efficacy; Class 1.2; 30-80% efficacy). Class 2 are incomplete with only one asy mptote (Class 2.1, > 80% efficacy; Class 2.2, 30-80% % efficacy). Class 3 display activity only at the highest concentrations and efficacy >30%. Class 4 are with low efficacy (<30%) or no response and considered inactive3.

[2] = system: Neuro 2A cells; assay: MTS cell proliferation assay; type: cell-based, Mouse; conditions: 1 day
Method: (§1) Neuro 2A cells or NIH/3T3 cells (ATCC) were seeded at various confluency in a 96-well plate in 100 µL DMEM containing 5% FBS or 10% FBS with 1% penicillin streptomucin, respectively, at 37 °C in a 5% CO2 and 95% humidity incubator for 18 hr. To each well 1 µL inhibitor with various concentrations or DMSO was added. The final concentrations of the tested inhibitors were 0, 5, 10, 20, 40 and 80 µM for G7 and LY, and 0, 5, 10, 20, 40 and 80 nM for Torin1, based on their respective IC50 values (~µM for G7 and LY and ~ nM for Torin 1). After 24 hr, 20 µL of CellTiter 96® AQueous One Solution Reagent (Promega) were added. The plate was placed in the incubator for 2 h and absorbance at 490 nm was measured with a Synergy HT Microplate Reader (Bio-Tek).

[3] = target: T1, Akt (Mus musculus, UniProt P31750); assay: Akt activity assay (immunoprecipitated Akt, K-Lisa); type: cell-based; conditions: LY at 125 µM
T1 construct: subjected to immunoprecipitation using protein G-plus and anti-AKT PH domain (Millipore); endogenous in cells; host or cells: Neuro 2A (mouse neuroblastoma), IGF-stimulated
T1 sequence (P31750 whole entry, the tested form may be a part): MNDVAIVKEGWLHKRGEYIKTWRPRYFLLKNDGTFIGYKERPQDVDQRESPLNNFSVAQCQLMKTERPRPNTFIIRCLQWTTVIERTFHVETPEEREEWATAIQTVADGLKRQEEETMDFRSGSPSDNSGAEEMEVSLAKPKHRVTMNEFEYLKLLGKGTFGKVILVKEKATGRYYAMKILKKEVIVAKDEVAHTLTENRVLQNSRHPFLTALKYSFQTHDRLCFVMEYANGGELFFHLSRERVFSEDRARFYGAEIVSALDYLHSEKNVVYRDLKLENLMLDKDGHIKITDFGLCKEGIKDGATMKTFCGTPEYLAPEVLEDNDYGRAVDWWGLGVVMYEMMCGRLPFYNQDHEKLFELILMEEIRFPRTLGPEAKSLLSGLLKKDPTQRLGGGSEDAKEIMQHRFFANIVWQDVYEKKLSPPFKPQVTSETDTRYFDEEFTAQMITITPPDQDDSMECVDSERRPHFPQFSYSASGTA
Method: After overnight starvation by incubating with serum-free DMEM, Neuro 2A cells were treated with compound G7 at various concentrations for 30 min at room temperature followed by stimulation with IGF (final concentration of 100 ng/mL) for 30 min. Cells were lysed with lysis buffer containing 1% Triton X-100 and protease/phosphatase inhibitors (Cell Signaling Technology) and subjected to immunoprecipitation using protein G-plus and anti-AKT PH domain (Millipore). The activity of the immunopurified Akt was evaluated using a K-Lisa Akt activity kit (Millipore) in accordance with manufacturer’s instructions. The activity was normalized to Akt level in the immunoprecipitates determined by quantitative western blot analysis.

[4] = system: LNCaP cells; assay: MTS cell proliferation assay; type: cell-based; conditions: 1 day, 40% confluent
Method: as §1
Fig. S8. Effect of G7 on proliferation of LNCaP cells. Cells that were 40% confluent in RPMI-1640 medium containing 10% FBS were treated with inhibitors for 1 day and subjected to MTS assays. *, µM for both G7 and LY and nM for Torin1. Data represent means ± SEM (n=3). G7, 4-phenylquinolin-2(1H)-one, LY, LY294002.

[5] = system: mTORC2; set-up: method as in PMID 22614243; conditions: cited from earlier work

## O=c1cc(N2CCOCC2)oc2c(-c3ccccc3)cccc12 [LY294002, 2-(4-morpholinyl)-8-phenyl-4H-1-benzopyran-4-one]
[1]; inhibitor 15 min before IGF, read-out: IC50
  pIC50: 4.60
[2]
  proliferation of Neuro 2A cells: inhibited the proliferation
[3]
  inhibition at 125 µM: ~90%
[4]
  proliferation of LNCaP prostate cancer cells: inhibited the proliferation

## NC1(c2ccc(-c3nc4ccn5c(=O)[nH]nc5c4cc3-c3ccccc3)cc2)CCC1 [MK-2206]
[5]
  effect on mTORC2 activity: decrease mTORC2 activity

## CCC(=O)N1CCN(c2ccc(-n3c(=O)ccc4cnc5ccc(-c6cnc7ccccc7c6)cc5c43)cc2C(F)(F)F)CC1 [Torin 1, 1-(4-(4-Propionylpiperazin-1-yl)-3-(trifluoromethyl)phenyl)-9-(quinolin-3-yl)benzo[h][1,6]naphthyridin-2(1H)-one]
[1]; 384-well format, read-out: IC50
  pIC50: 7.70
[1]; 1536-well, inhibitor 15 min before IGF, read-out: apparent IC50
  pIC50: ~7.70
[2]
  proliferation of Neuro 2A cells: inhibited the proliferation
[4]
  proliferation of LNCaP prostate cancer cells: inhibited the proliferation
